This note sets out measurements from patent publication US20220226337A1 (Gilead Sciences, Inc., priority 2018, published 2022).

The assay concerns the target T1, α4β7 integrin interaction with MadCAM-1 (RPMI8866 cells) (Homo sapiens, UniProt P13612+P26010).
T1 construct: α4β7 integrin expressing cells; endogenous in cells; host or cells: RPMI8866 cells
T1 sequence (P13612 34-1032): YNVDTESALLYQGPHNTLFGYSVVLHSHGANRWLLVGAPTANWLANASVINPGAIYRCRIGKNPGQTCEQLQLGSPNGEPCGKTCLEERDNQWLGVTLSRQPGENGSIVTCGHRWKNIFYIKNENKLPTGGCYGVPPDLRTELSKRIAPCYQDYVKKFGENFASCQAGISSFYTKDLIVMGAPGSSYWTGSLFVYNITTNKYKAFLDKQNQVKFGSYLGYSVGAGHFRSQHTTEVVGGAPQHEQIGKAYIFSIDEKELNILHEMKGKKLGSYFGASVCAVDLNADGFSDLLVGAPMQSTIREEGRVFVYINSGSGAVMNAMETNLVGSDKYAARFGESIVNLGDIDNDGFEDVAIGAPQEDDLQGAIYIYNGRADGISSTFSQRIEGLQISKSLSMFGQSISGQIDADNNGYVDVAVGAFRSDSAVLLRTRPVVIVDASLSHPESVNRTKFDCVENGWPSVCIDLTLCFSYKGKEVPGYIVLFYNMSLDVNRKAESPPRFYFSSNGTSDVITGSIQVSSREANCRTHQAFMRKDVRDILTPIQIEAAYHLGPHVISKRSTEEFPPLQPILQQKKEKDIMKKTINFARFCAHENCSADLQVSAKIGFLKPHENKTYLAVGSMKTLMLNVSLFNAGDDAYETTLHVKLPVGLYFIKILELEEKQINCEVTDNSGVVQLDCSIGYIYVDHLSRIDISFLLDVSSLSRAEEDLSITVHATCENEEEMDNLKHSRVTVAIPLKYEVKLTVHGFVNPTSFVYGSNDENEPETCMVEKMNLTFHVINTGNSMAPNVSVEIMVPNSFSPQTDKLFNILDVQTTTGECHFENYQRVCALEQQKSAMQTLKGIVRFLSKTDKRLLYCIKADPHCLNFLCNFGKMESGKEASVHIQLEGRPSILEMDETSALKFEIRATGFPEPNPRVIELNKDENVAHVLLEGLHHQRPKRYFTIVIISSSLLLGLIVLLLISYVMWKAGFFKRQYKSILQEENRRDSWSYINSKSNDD
T1 sequence (P26010 20-798): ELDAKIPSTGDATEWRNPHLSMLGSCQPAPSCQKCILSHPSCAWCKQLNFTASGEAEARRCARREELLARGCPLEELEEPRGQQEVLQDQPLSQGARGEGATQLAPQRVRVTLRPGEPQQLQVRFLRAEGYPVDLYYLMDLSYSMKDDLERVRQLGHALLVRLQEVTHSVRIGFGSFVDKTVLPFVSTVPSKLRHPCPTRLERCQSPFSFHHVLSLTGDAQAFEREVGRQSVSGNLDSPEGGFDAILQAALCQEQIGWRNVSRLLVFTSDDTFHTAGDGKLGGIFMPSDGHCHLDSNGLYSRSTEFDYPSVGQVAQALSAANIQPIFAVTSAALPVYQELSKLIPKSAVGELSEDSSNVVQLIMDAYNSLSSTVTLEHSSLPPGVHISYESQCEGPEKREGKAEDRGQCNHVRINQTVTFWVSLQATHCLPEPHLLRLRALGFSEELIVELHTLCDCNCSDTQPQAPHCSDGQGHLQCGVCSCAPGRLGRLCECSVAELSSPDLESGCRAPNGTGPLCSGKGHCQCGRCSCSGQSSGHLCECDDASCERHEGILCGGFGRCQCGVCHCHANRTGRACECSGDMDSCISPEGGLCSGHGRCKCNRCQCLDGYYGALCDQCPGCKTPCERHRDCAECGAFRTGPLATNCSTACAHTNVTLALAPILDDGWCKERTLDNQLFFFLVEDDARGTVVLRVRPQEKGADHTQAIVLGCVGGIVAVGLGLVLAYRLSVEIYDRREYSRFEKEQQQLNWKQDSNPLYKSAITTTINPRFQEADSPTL
Kind of assay: α4β7 Integrin Cell Capture Assay. In kind it is cell-based. Particulars: capture of α4β7 integrin expressing RPMI8866 cells on recombinant MadCAM-1 extracellular domain-coated plate; 0.5 mM MnCl2. The method, boiled down: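 RPMI8866 cells (0.5×10^6 cells/mL in DMEM + 0.5% FBS + 0.5 mM MnCl2) preincubated with compound 1 h at 37 °C, then allowed to adhere 30 min at 37 °C to plates coated with MAdCAM-1 extracellular domain (1.0 μg/mL). Bound cells fixed with 2% glutaraldehyde, Hoechst-stained, imaged and counted; EC50 from cell count versus concentration.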
For the compound `Cc1cc(N2CCC2)c(-c2ccc(C[C@H](NC(=O)c3c(F)cc(N4CCOC[C@@H]4C(F)(F)F)cc3F)C(=O)O)c3c2OCCC3)c(=O)n1C` (atropisomer, axis not shown) [Example 153], the EC50 was found to be 0.551 nM. In the case of `Cc1c(-c2ccc(C[C@H](NC(=O)c3c(F)cccc3F)C(=O)O)c3c2CCOC3)c(=O)n(C)c2ccc(F)cc12` (single isomer, unassigned) [Example 36] it was 24.8 nM; in that of `Cc1cc(N2CCOC3(CC3)C2)cc(F)c1C(=O)N[C@@H](Cc1ccc(-c2nc(C)c(C)n(C)c2=O)c2c1CCCO2)C(=O)O` [Example 139], 2 nM. As for `Cc1cc(C)n(C)c(=O)c1-c1ccc(C[C@H](NC(=O)c2c(F)cc(N3CCOC[C@@H]3C(F)(F)F)cc2F)C(=O)O)c2c1CCC2` [Example 195], the figure is 0.198 nM; as for `O=C(N[C@@H](Cc1ccc(-c2c(Cl)cc(F)cc2Cl)c2c1OCCCO2)C(=O)O)c1c(Cl)cccc1Cl` [Example 97, (S)-3-(9-(2,6-dichloro-4-fluorophenyl)-3,4-dihydro-2H-benzo[b][1,4]dioxepin-6-yl)-2-(2,6-dichlorobenzamido)propanoic acid], 62 nM. For `O=C(N[C@@H](Cc1ccc(-c2c(Cl)cc(F)cc2Cl)c2c1OCCC2)C(=O)O)c1c(F)cccc1F` [Example 98, (S)-3-(5-(2,6-dichloro-4-fluorophenyl)chroman-8-yl)-2-(2,6-difluorobenzamido)propanoic acid], the concentration giving a half-maximal response (EC50) stood at 97.8 nM. Take `Cc1cnc(-c2ccc(C[C@H](NC(=O)c3c(F)cc(N4CCOC[C@@H]4C(F)(F)F)cc3F)C(=O)O)c3c2COC3)nc1C` [Example 28, (S)-2-(2,6-difluoro-4-((R)-3-(trifluoromethyl)morpholino)benzamido)-3-(7-(4,5-dimethylpyrimidin-2-yl)-1,3-dihydroisobenzofuran-4-yl)propanoic acid]: the EC50 is 94.9 nM.

With `Cc1nc(C)n(C)c(=O)c1-c1ccc(C[C@H](NC(=O)c2c(F)cc(N3CCOC[C@@H]3C(F)(F)F)cc2F)C(=O)O)c2c1OCCC2` (atropisomer, axis not shown) [Example 118], the EC50 is 0.142 nM. Regarding `Cc1c(-c2ccc(C[C@H](NC(=O)c3c(F)cc(N4CCOC[C@@H]4C(F)(F)F)cc3F)C(=O)O)c3c2COC3)c(=O)n(C)c(=O)n1C` [Example 14, (S)-2-(2,6-difluoro-4-((R)-3-(trifluoromethyl)morpholino)benzamido)-3-(7-(1,3,6-trimethyl-2,4-dioxo-1,2,3,4-tetrahydropyrimidin-5-yl)-1,3-dihydroisobenzofuran-4-yl) propanoic acid], the EC50 was 0.38 nM. Regarding `Cc1nc(-c2ccc(C[C@H](NC(=O)c3c(F)cc(N4CCOC[C@@H]4C(F)(F)F)cc3F)C(=O)O)c3c2OCCO3)c(=O)n(C)c1C` [Example 175], the EC50 worked out at 0.205 nM.

With `Cc1cc(N2CCOC[C@@H]2C(F)(F)F)cc(F)c1C(=O)N[C@@H](Cc1ccc(-c2c(C(F)(F)F)cc(C)n(C)c2=O)c2c1CCCO2)C(=O)O` [Example 135], the EC50 was 0.094 nM.

Regarding `O=C(N[C@@H](Cc1ccc(-c2c(Cl)cc(F)cc2Cl)c2c1C1CC1CO2)C(=O)O)c1c(Cl)cccc1Cl` (stereo partly drawn) [Example 80, (2S)-3-(4-(2,6-dichloro-4-fluorophenyl)-1,1a,2,7b-tetrahydrocyclopropa[c]chromen-7-yl)-2-(2,6-dichlorobenzamido)propanoic acid], the EC50 was 67.7 nM. In the case of `Cc1cc(C(F)(F)F)c(-c2ccc(C[C@H](NC(=O)c3c(F)cc(N4CCOC[C@@H]4C(F)(F)F)cc3F)C(=O)O)c3c2OCCC3)c(=O)n1C` (single isomer, unassigned) [Example 39] it was 0.126 nM. On to `Cc1c(Cl)cc(-c2ccc(C[C@H](NC(=O)c3c(F)cc(N4CCOC[C@@H]4C(F)(F)F)cc3F)C(=O)O)c3c2OCCC3)c(=O)n1C` [Example 141], for which the EC50 amounted to 0.529 nM.
